Measured values reported in article PMC13099375 (Nature biomedical engineering, 2025).
Several values for one entry are separate records, joined by “and”; a condition that tells them apart may be missing. Equal values may be shown once. Bridges are numbered along the chain shown (N, C = ends). Where no end group is shown, it is not given here. [ ]: non-standard residue; d: D form. Lys(N3) = [N-]=[N+]=NCCCC[C@H](N)C(=O)O

Legend:
[1] = Clinical data, adult B-ALL: peak CAR-T expansion by qPCR (EDF2A); format: in vivo, human; conditions: adult relapsed/refractory ALL
[2] = Clinical data, pediatric B-ALL: CAR-T expansion by qPCR and B cell aplasia (Fig 1A-D); format: in vivo, human; conditions: for probability of continued B-cell aplasia: at 6 months
[3] = Clinical data, adult B-cell lymphoma: peak CAR-T expansion by qPCR (EDF2B); format: in vivo, human; conditions: relapsed/refractory B-NHL
[4] = tested on: FMC63^IgG binding to CD19^+ NALM6 cells; assay: FMC63 IgG staining of NALM6 cells in the presence of mimotope (Fig 4E); parameters: species or system human
[5] = tested on: FMC63^scFv binding to CD19^+ NALM6 cells; assay: FMC63 scFv staining of NALM6 cells after pre-incubation with mimotope (Fig 4E); parameters: species or system human; conditions: scFv pre-blocked with mimotope
CD19-CAR Jurkat T cells = assay: CD69 expression on mimotope-pre-incubated CD19-CAR Jurkat T cells co-cultured with NALM6 (Fig 4F); format: cell-based, human; conditions: 1:1 E:T, 16 hours
FMC63^scFv [6] = assay: Retention of prebound biotin-FMC63 scFv on yeast clones under competition with FMC63 IgG (Fig 3I); format: binding; conditions: pre-stained with 50nM Biotin-FMC63^scFv, then 1μM FMC63^IgG
FMC63-mCAR-T cells [7] = assay: IFN-γ ELISA, FMC63-mCAR-T co-cultured with amph-mimotope-labeled K562 cells (Fig 5B); format: cell-based, mouse
FMC63^IgG [8] = assay: ELISA of FMC63 IgG binding to plate-bound synthetic mimotopes (Fig 2F, 3F); conditions: peptide pre-treated with DTT
FMC63^IgG [9] = assay: Flow cytometry of FMC63 IgG binding to mimotope yeast clones (Fig 2E, 3B, 3D, 3E)
Target sequence in this assay (as listed by the source): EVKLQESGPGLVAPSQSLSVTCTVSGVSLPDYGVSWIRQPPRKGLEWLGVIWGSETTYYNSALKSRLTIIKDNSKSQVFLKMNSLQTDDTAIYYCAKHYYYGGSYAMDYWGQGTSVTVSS
Target sequence in this assay (as listed by the source): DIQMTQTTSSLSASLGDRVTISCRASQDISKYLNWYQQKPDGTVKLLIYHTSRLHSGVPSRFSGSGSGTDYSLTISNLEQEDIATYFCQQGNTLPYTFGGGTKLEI

FMC63-mCAR-T cells [10] = assay: CTV dilution of FMC63-mCAR-T cells in LNs after amph-mimotope vaccination (Fig 5D); format: in vivo, C57BL/6 mice; conditions: 10 nmol amph-peptide + 25μg CDG, 48 hours after vaccination, n=3
[11] = tested on: primary mouse B cells (mouse CD19); assay: FMC63 IgG binding to primary mouse B cells by flow cytometry (EDF7D)
FMC63^scFv [12] = assay: FMC63 scFv binding to K562 cells labeled with amph-mimotopes (Fig 3J); conditions: read-out: Kd^scFv (apparent); K562 labeled with 500 nM amph-mimotope, fluorescent FMC63^scFv, flow cytometry
Target sequence in this assay (as listed by the source): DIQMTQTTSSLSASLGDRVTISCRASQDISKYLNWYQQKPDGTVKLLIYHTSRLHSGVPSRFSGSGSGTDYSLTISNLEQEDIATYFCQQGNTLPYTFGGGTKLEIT

EGFRvIII-CAR-T cells = assay: IFN-γ ELISA, control EGFRvIII-CAR-T co-cultured with amph-labeled K562 cells (Fig 2I); format: cell-based
CD19 CAR-T cells = assay: IFN-γ ELISA, human CD19 CAR-T co-cultured with amph-mimotope-labeled K562 cells (Fig 2H); format: cell-based; conditions: 6 hr

Substance: tisagenlecleucel
- peak of expansion ([1]; high tumor burden (n=23)): 77,109 CAR19 copies/μg of DNA
- peak of expansion ([1]; low tumor burden (n=6)): 25,064 CAR19 copies/μg of DNA
- median time to peak CAR-T expansion ([2]; after infusion, both cohorts (high ≥40%, n=40; low <40%, n=90), qPCR): 10 days
- probability of continued B-cell aplasia ([2]; high tumor burden patients, 95% CI 55–95): 72%
- probability of continued B-cell aplasia ([2]; low tumor burden patients, 95% CI 57–78): 67%
- CAR-T19 expansion ([3]; high disease burden (n=7)): 35,857 CAR19 copies/μg of DNA
- CAR-T19 expansion ([3]; low tumor burden (n=30)): 18,718 CAR19 copies/μg of DNA

Substance: PRKHSGRICPWNCKELDNPPFIFGNR (disulfide) [F12-A1]
- mimotope concentration at which FMC63^IgG binding to CD19 is abolished [4]: > 10 µM
- mimotope concentration at which FMC63^scFv binding to NALM6 cells is compromised / abolished [5]: greater than 1 μM
- CD69 induction on FMC63 CAR Jurkat cells stimulated with NALM6 after pre-blocking with mimotope (CD19-CAR Jurkat T cells): not affected
- time FMC63^scFv remained bound on yeast surface in the presence of excess soluble FMC63^IgG (FMC63^scFv [6]): over 24 hours

Substance: amph-mimotopeF12 ({DSPE‑PEG2k‑DBCO}-[Lys(N3)]RICPWNCKEL; disulfide 4-8 (inferred))
- IFN-γ secretion, FMC63-mCAR-T with amph-labelled K562 (Fig 5B) (FMC63-mCAR-T cells [7]; replicate 1): 739.091
- IFN-γ secretion, FMC63-mCAR-T with amph-labelled K562 (Fig 5B) (FMC63-mCAR-T cells [7]; replicate 2): 671.636
- IFN-γ secretion, FMC63-mCAR-T with amph-labelled K562 (Fig 5B) (FMC63-mCAR-T cells [7]; replicate 3): 771.636

Substance: RHCPWNCSLL (disulfide) [P1]
- FMC63^IgG binding to DTT-treated peptide (FMC63^IgG [8]): completely ablated
- binding of yeast clone at 20 nM biotinylated FMC63^IgG (FMC63^IgG [9]; flow cytometry): no detectable binding
- FMC63^IgG binding to yeast clone under mild reductive conditions (FMC63^IgG [9]; yeast treated with 0.1mM, 1mM DTT, 500 nM biotin-FMC63^IgG): eliminated FMC63^IgG binding

Substance: amph-F12: amphiphile (DSPE-PEG2k) conjugate of F12 ({DSPE‑PEG2k‑DBCO-azido lysine}-RICPWNCKEL; disulfide 3-7 (inferred))
- CAR-T cell proliferation (CTV dilution) in LNs (in words) (FMC63-mCAR-T cells [10]): limited proliferation

Substance: FMC63 IgG: recombinant FMC63 (anti-human CD19) expressed as a full-length IgG
- binding to WT B cells expressing mouse CD19 (in words) [11]: minimal binding

Substance: amph-P1: P1 with N-terminal azide conjugated to DSPE-PEG2k-DBCO ({DSPE‑PEG2k‑DBCO}-[Lys(N3)]RHCPWNCSLL; not fully specified; cysteine pairing not given here)
- CAR-T cell proliferation (CTV dilution) in LNs (in words) (FMC63-mCAR-T cells [10]): no CAR-T cell proliferation
- Kd (FMC63^scFv [12]): > 1000 nM
- stimulation of control EGFRvIII CAR-T cells (in words) (EGFRvIII-CAR-T cells; K562 labeled with 100 nM amph-ligand, 5:1 E:T, 6 hours, IFN-γ ELISA): failed to stimulate
- IFN-γ secretion, EGFRvIII-CAR-T with amph-labelled K562 (Fig 2I) (EGFRvIII-CAR-T cells; replicate 1): 128
- IFN-γ secretion, EGFRvIII-CAR-T with amph-labelled K562 (Fig 2I) (EGFRvIII-CAR-T cells; replicate 2): 153
- IFN-γ secretion, EGFRvIII-CAR-T with amph-labelled K562 (Fig 2I) (EGFRvIII-CAR-T cells; replicate 3): 104
- IFN-γ by ELISA (CD19 CAR-T cells; CD19^− K562 labeled with 100 nM amph-P1, CD19 CAR-T 5:1 E:T, triplicate samples): 79.6185 and 80.063 and 79.9889
- IFN-γ secretion from CD19 CAR-T cells (in words) (CD19 CAR-T cells; K562 labeled with 100 nM amph-P1, 5:1 E:T): effectively triggered IFN-γ secretion from CD19 CAR-T cells but to a much lesser extent than NALM6 cells
